{"source": "paper PMC10496123", "about": "“Potent Antifungal Activity of Penta-O-galloyl-β-D-Glucose against Drug-Resistant Candida albicans, Candida auris, and Other Non-albicans Candida Species” (ACS Infectious Diseases, 2023)", "key": {"HepG2 cells": {"system": "HepG2 cells", "assay": "CellTiter-Glo cell viability/proliferation (relative ATP)", "type": "cell-based", "details": "Homo sapiens, HepG2, 24 h; read-out: IC50 (viable cell number reduced by 50%, relative ATP)", "experimental": "(§1) Hek293 cells were purchased from BEI Resources. HaCaT cells were purchased from ATCC. HepG2 cells were provided by Dr. Edward Morgan (Emory University). Mammalian cell cultures were maintained in Dulbecco’s modified Eagle’s medium with L-glutamine and 4.5 g L^–1 glucose (Corning) supplemented with 10% fetal bovine serum (Avantor) and a 100× combination solution of 10,000 IU mL^–1 penicillin and 10,000 μg mL^–1 streptomycin (Corning) at 37 °C, 5% CO2. Mammalian cultures at 70–80% confluency were used for cell viability and cytotoxicity experiments.\n(§2) ATP content as a marker for the relative viable cell number was measured with the CellTiter-Glo Luminescent Cell Viability assay (Promega Corporation). The mammalian culture was standardized at 4 × 10^3 cells per 100 μL in a Costar 3610 white plate, clear bottom 96-well plates (Corning). Cells were allowed to attach and incubate for 24 h before growth media was replaced with treatment media (PGG, 16–512 μg mL^–1) or an equivalent volume of DMSO, followed by incubation for 24 h. After incubation with treatment, plates were equilibrated to room temperature for 1 h, and then 100 μL of CellTiter-Glo reagent was added to each well and mixed for 2 min. Plates were allowed to incubate at room temperature for 10 min before luminosity was measured with an integration time of 1 s via a BioTek Cytation3 plate reader. The relative viable cell number was measured by comparing treatment samples to untreated controls. Experiments were repeated in triplicate with three technical replicates per treatment and on different days."}, "Hek293 cells": {"system": "Hek293 cells", "assay": "CellTiter-Glo cell viability/proliferation (relative ATP)", "type": "cell-based", "details": "Homo sapiens, HEK293, 24 h; read-out: IC50 (viable cell number reduced by 50%, relative ATP)", "experimental": "as §1, §2"}, "HaCaT cells": {"system": "HaCaT cells", "assay": "CellTiter-Glo cell viability/proliferation (relative ATP)", "type": "cell-based", "details": "Homo sapiens, 24 h, read-out: IC50 (viable cell number, relative ATP)", "experimental": "as §1, §2"}, "Acinetobacter baumanii": {"system": "Acinetobacter baumanii", "set-up": "method as in PMID 32948818", "details": "21 daily passages; cited from earlier work"}, "C. auris CDC381": {"system": "C. auris CDC381", "assay": "Iron supplementation growth inhibition assay", "type": "cell-based, Candida auris", "details": "10 mM iron (II) or iron (III); PGG 4–16 μg mL^–1; 48 h", "experimental": "(§3) For iron supplementation assays, growth inhibition assays were performed by microbroth dilution following the guidelines set by the CLSI.[58] A solution of iron (II) sulfate and iron (III) sulfate (VWR) was dissolved in deionized water to a concentration of 10 mM and added to treated wells at the beginning of incubation. Growth inhibition was measured after 48 h. Percent growth inhibition was determined by comparing treatments to vehicle controls. Iron supplementation experiments were repeated in duplicate with three technical replicates per treatment and on different days."}, "MDA-MB-468": {"system": "MDA-MB-468", "set-up": "method as in PMID 33707603", "details": "induction of apoptosis; cited from earlier work"}, "Candida albicans": {"system": "Candida albicans", "assay": "Growth inhibition by CLSI microbroth dilution", "type": "cell-based", "details": "for MIC / IC50: Candida albicans, 48 h; for MIC: >90% growth inhibition"}, "[1]": {"system": "Acinetobacter baumannii (various strains)", "set-up": "method as in PMID 32948818", "details": "antibacterial; possibly iron chelation; cited from earlier work"}, "C. glabrata CDC325": {"system": "C. glabrata CDC325", "assay": "Iron supplementation growth inhibition assay", "type": "cell-based, Candida glabrata", "details": "10 mM iron (II) or iron (III); PGG 4–16 μg mL^–1; 48 h", "experimental": "as §3"}, "[2]": {"system": "C. albicans wild type (CAF2-1) and cdr1Δ/Δ cdr2Δ/Δ mdr1Δ/Δ flu1Δ/Δ", "assay": "microbe, parasite or virus in culture", "type": "cell-based, Candida albicans", "details": "for MIC90: Candida albicans, 72 h, RPMI-1640, 72 h, 30 °C, OD600"}, "humans": {"system": "humans", "details": "balloon catheter, 3 mg/mL over 25 mL; cited from earlier work"}, "Candida auris": {"system": "Candida auris", "assay": "Growth inhibition by CLSI microbroth dilution", "type": "cell-based", "details": "Candidozyma auris, 48 h"}, "MDA-MB-231": {"system": "MDA-MB-231", "set-up": "method as in PMID 33707603", "details": "induction of apoptosis; cited from earlier work"}, "[3]": {"details": "after oral administration in mice; cited from earlier work"}, "C. albicans": {"system": "C. albicans", "assay": "Concentration-response matrixes (checkerboard assays)", "type": "cell-based, Candida albicans", "details": "FICI at 90% growth inhibition, 48 h, 30 °C"}, "MRSA (various strains)": {"system": "MRSA (various strains)", "details": "antibacterial; possibly iron chelation; cited from earlier work"}, "rats": {"system": "rats", "details": "up to 120 mg/kg/day intravenously in rats; cited from earlier work"}, "[4]": {"details": "cited from earlier work"}, "influenza A": {"system": "influenza A", "set-up": "method as in PMID 35033970", "details": "interference with viral replication; cited from earlier work"}}, "note": "“And” between values parts separate entries of the source, which are not always exact repeats. Identical values can stand only once."}
{"compound": "O=C(OC[C@H]1O[C@@H](OC(=O)c2cc(O)c(O)c(O)c2)[C@H](OC(=O)c2cc(O)c(O)c(O)c2)[C@@H](OC(=O)c2cc(O)c(O)c(O)c2)[C@@H]1OC(=O)c1cc(O)c(O)c(O)c1)c1cc(O)c(O)c(O)c1", "note": "[PGG, penta-O-galloyl-β-D-glucose]", "values": [{"measurement": "IC50", "setting": "HepG2 cells", "result": "68 µM and 64 µg/mL"}, {"measurement": "IC50", "setting": "Hek293 cells", "result": "64 µg/mL and 68 µM"}, {"measurement": "IC50", "setting": "HaCaT cells", "result": "32 µg/mL and 34 µM"}, {"measurement": "Development of resistance", "setting": "Acinetobacter baumanii", "result": "did not develop resistance"}, {"measurement": "Reduction of the growth inhibitory activity on iron supplementation", "setting": "C. auris CDC381", "result": "80–100%"}, {"measurement": "IC50/EC50", "setting": "MDA-MB-468", "result": 35.72, "unit": "µM"}, {"measurement": "MIC", "setting": "Candida albicans; ATCC90028, strain ATCC 90028", "result": 1, "unit": "mg/L"}, {"measurement": "IC50", "setting": "Candida albicans; ATCC90028, strain ATCC 90028, lowest concentration with >50% growth inhibition", "result": 0.5, "unit": "mg/L"}, {"measurement": "IC50", "setting": "Candida albicans; strain MH12, >50% growth inhibition", "result": 0.25, "unit": "mg/L"}, {"measurement": "MIC", "setting": "Candida albicans; strain MH12", "result": 0.5, "unit": "mg/L"}, {"measurement": "MIC (range over strains)", "setting": "Candida albicans; two strains of C. albicans", "result": "0.5 to 1.0", "unit": "μg mL^–1"}, {"measurement": "IC50/EC50", "setting": "[1]", "result": "16 to 64", "unit": "mg/L"}, {"measurement": "Reduction of the growth inhibitory activity on iron supplementation", "setting": "C. glabrata CDC325", "result": "80–100%"}, {"measurement": "MIC90", "setting": "[2]; Wild type (CAF2-1)", "result": "> 5", "unit": "mg/L"}, {"measurement": "MIC90", "setting": "[2]; cdr1Δ/Δ cdr2Δ/Δ mdr1Δ/Δ flu1Δ/Δ", "result": "> 5", "unit": "mg/L"}, {"measurement": "Effect of absence of major efflux pumps (CDR1, CDR2, FLU1, MDR1) on sensitivity", "setting": "[2]; mutant versus wild type", "result": "did not modify sensitivity"}, {"measurement": "Safety in humans", "setting": "humans", "result": "safely"}, {"measurement": "MIC", "setting": "Candida auris; strain AR Bank #0381, >90% growth inhibition", "result": 0.25, "unit": "mg/L"}, {"measurement": "IC50", "setting": "Candida auris; strain AR Bank #0387, >50% growth inhibition", "result": 0.5, "unit": "mg/L"}, {"measurement": "MIC", "setting": "Candida auris; strain AR Bank #0387, >90% growth inhibition", "result": 1, "unit": "mg/L"}, {"measurement": "IC50", "setting": "Candida auris; strain AR Bank #0390, >50% growth inhibition", "result": 4, "unit": "mg/L"}, {"measurement": "MIC", "setting": "Candida auris; strain AR Bank #0390, >90% growth inhibition", "result": 8, "unit": "mg/L"}, {"measurement": "IC50/EC50", "setting": "MDA-MB-231", "result": 50.23, "unit": "µM"}, {"measurement": "Detection in plasma", "setting": "[3]", "result": "could not be detected"}, {"measurement": "Synergistic interaction with caspofungin", "setting": "C. albicans; C. albicans ATCC 90028", "result": "does not potentiate"}, {"measurement": "Synergistic interaction with fluconazole", "setting": "C. albicans; azole-tolerant clinical isolate CaCi-2", "result": "does not potentiate"}, {"measurement": "IC50/EC50", "setting": "MRSA (various strains)", "result": "16 to 32", "unit": "mg/L"}, {"measurement": "Tolerability", "setting": "rats", "result": "no ill effects"}, {"measurement": "Efflux ratio", "setting": "[4]", "result": "high efflux ratio"}, {"measurement": "IC50/EC50", "setting": "influenza A", "result": 5.3, "unit": "mg/L"}]}
